In ChEMBL document CHEMBL3507680, “University of Dundee, Gates Library screen for HepG2 cell viability” one finds cytotoxicity data, which are given here for 103 compounds.

A short description of this data set: Human HepG2 cell viability assay in 384 well format. Type of data set: toxicity, cell-based. The conditions noted are these: HepG2 cells, read-out: Inhibition. Set-up: dose 125 nL, time 70.5 hour; concentration not given beside the values.
Take `Cn1ncc(N2CCOCC2)c(Cl)c1=O`: the cytotoxicity at 70.5 h was -7.54%. Consider `CSc1cc2c(cc1NC(=O)NCC(=O)N(C)C)OCCO2`, for which the cytotoxicity at 70.5 h worked out at 0.952%.

Regarding `NCC1(c2cccc(C(F)(F)F)c2)CCCCC1`, the cytotoxicity at 70.5 h is -4.79%. `Cc1cc(CN2CCc3nn(C)c(=O)cc3C2)no1`: the cytotoxicity at 70.5 h was -2.94%. With `CCS(=O)(=O)N1CCCC(c2nc3ccccc3n2C(C)C)C1` (stereo not drawn), the cytotoxicity at 70.5 h was -3.94%. As for `CC(CNC(=O)N1CCN(Cc2ccon2)CC1)Cc1cccs1` (stereo not drawn), the figure is -2.44%. The value for `CC(=O)N(C)C1CCN(C(=O)NCC(C)Cc2cccs2)CC1` (stereo not drawn) was -2.57%; that for `CC(C)(C)NC(=O)Cn1cc(C(N)=O)c(-c2ccccc2)n1` was -3.41%; that for `CN1CCC(N(C)C(=O)CCc2ccc(F)c(F)c2)C1=O` (stereo not drawn) was -6.34%. Consider `Oc1ncccc1-c1nc(-c2cccc(CN3CCOCC3)c2)no1`, for which the cytotoxicity at 70.5 h was -15.1%. The value for `Cc1cnc(-c2nc(-c3cccc(CN4CCOCC4)c3)no2)cn1` was -4.86%; that for `Cc1n[nH]c(C)c1NC(=O)CN(CC(O)c1ccc(F)cc1)C1CC1` (stereo not drawn) was -3.36%. The value for `Cc1cc(NCC2(O)CCOCC2)nc2ccccc12` was -8.29%. The value for `O=C(c1ccc2[nH]ccc2c1)N1CCCCC1c1nc[nH]n1` (stereo not drawn) was -5.67%; that for `CC(C)(CNc1cc(F)ccc1F)S(C)(=O)=O` was 0.249%. `CSC1(CNc2ccc(Br)cn2)CCOCC1`: the cytotoxicity at 70.5 h was -2.33%. As for `CN(C)C1(CNc2ncc(Br)cn2)CCOCC1`, the figure is -10.2%; as for `O=C(c1ccc(F)c(F)c1)N1CCCCC1c1nc[nH]n1` (stereo not drawn), -6.52%. The value for `CC(=O)N1CCC(CCNC(C)c2cc(C)cc(C)c2)CC1` (stereo not drawn) was 3.75%; that for `CC(=O)N1CCC(CCNC(C)c2cc(F)cc(F)c2)CC1` (stereo not drawn) was -3.81%. The value for `Cc1cncc(C(=O)N2CCCCC2c2nc[nH]n2)c1` (stereo not drawn) was -4.36%. Turning to `CC(CCSc1ccccc1)N1CCCN(C(N)=O)CC1` (stereo not drawn), the cytotoxicity at 70.5 h was 28.8%. Regarding `Cc1n[nH]c(C2CN(C(=O)c3ccn(C)c(=O)c3)CCO2)n1` (stereo not drawn), the cytotoxicity at 70.5 h was 31.8%. The value for `O=C(Nc1nncs1)N(Cc1cccc(F)c1)C1CC1` was -5.56%; that for `Cc1cc2c(o1)CC(C)(C)CC2NC(=O)CNC(=O)C1CC1` (stereo not drawn) was -2.04%; that for `COc1cccc(CN(C(=O)NC2CC2)C2CCC(O)CC2)c1` (stereo not drawn) was -6.74%.

Turning to `CCN(C(=O)c1cc(C)nc2ccccc12)C1CC(=O)NC1=O` (stereo not drawn), the cytotoxicity at 70.5 h is -1.78%. As for `O=C(c1ccncc1)N1CCn2c(nnc2-c2ccccc2)C1`, the figure is -6.68%; as for `O=C(c1[nH]nc(C2CC2)c1Cl)N1CCN(S(=O)(=O)c2ccccc2)CC1`, 18.5%.

As for `O=C(Nc1ccnc2ccnn12)c1ccc(N2CCC(O)CC2)cc1`, the cytotoxicity at 70.5 h was 6.12%. As for `CCC(NC(=O)NCc1cc(Cl)ccc1OC)c1noc(C)n1` (stereo not drawn), the figure is 16%; as for `CCC(NC(=O)Nc1ccc(OC)c(C)c1)c1noc(C)n1` (stereo not drawn), 4.08%. The value for `O=C(c1ncoc1C1CCCO1)N1CCC2(CCCCC2)CC1` (stereo not drawn) was -3.26%; that for `O=C(Nc1cccn(Cc2ccccc2)c1=O)c1ccncc1F` was 14.1%; that for `O=C(c1[nH]nc(C2CC2)c1Cl)N1CCN(C2CC2)CC1` was 0.431%. The value for `CC(=O)NC(c1cc(F)ccc1F)C1CC1` (stereo not drawn) was -3.82%; that for `Cc1nn(C)c(C)c1OCC(=O)N1CCCCC1` was -2.11%; that for `COCCN(C)c1ccc(NCc2ccsc2)nc1` was -10.2%. With `Cc1cccc(C(=O)N2CCN(CCOC(C)C)CC2)n1`, the cytotoxicity at 70.5 h is -6.81%. The value for `CC(C)c1nc2c(n1C)CCN(CCCc1nc3ccccc3o1)C2` was -0.617%; that for `CN(Cc1nccn1C)S(=O)(=O)c1cccc(C#N)c1` was -1.58%. The value for `CNC(=O)c1ccc(=O)n(Cc2csc(C(C)(C)C)n2)c1` was -18.4%; that for `Cc1nc(C2(NCc3cccc(F)c3F)CCCCC2)no1` was -6.93%; that for `COCC(C)(C)NS(=O)(=O)C1CS(=O)(=O)c2ccccc21` (stereo not drawn) was -17.4%. As for `CCSc1ccc(NC(=O)NC(C)c2c(C)nn(C)c2C)cn1` (stereo not drawn), the figure is -13.5%; as for `CC(C)c1nc2c(n1C)CCN(CCS(=O)(=O)c1ccccc1)C2`, -12.4%. For `Cc1cnn(C2CCCN(C(=O)c3c(C)oc4nc[nH]c(=O)c34)C2)c1` (stereo not drawn), the cytotoxicity at 70.5 h is -9.75%. The value for `Cc1oc2nc[nH]c(=O)c2c1C(=O)N1CCCC(n2cccn2)C1` (stereo not drawn) was -4.01%. As for `CCS(=O)(=O)N1CCC(CSc2ccccc2)C1` (stereo not drawn), the figure is -11.1%; as for `Cn1cc(Br)cc1C(=O)NC1(C#N)CC1`, 15.5%; as for `Cc1ccccc1C1CN(c2cnn(C)c(=O)c2Cl)CCO1` (stereo not drawn), -1.35%. Consider `Cc1cccc(CNC2(CCO)CCOCC2)c1C`, for which the cytotoxicity at 70.5 h was -2.52%. The value for `O=C(NC1CCCN(c2ccccc2F)C1)c1ccon1` (stereo not drawn) was -9.69%; that for `CC1CN(C(=O)c2cc(=O)[nH]c3ccc(F)cc23)CCO1` (stereo not drawn) was 19.1%. As for `CSCCC(C)NC(=O)N(C)Cc1cc(Cl)cn1C` (stereo not drawn), the figure is -10.9%. The value for `Cc1cccc(C(=O)N2CCCN(CCc3scnc3C)CC2)c1` was -10.5%.

As for `CCS(=O)(=O)CC(C)NC(=O)N(C)Cc1cc(Cl)cn1C` (stereo not drawn), the cytotoxicity at 70.5 h was -7.58%.

For the compound `CN(Cc1nccn1C)S(=O)(=O)Cc1cccc(C#N)c1`, the cytotoxicity at 70.5 h is -12.6%. As to `CC(NCC1CCN(CCO)CC1)c1ccc(F)c(Cl)c1` (stereo not drawn), the cytotoxicity at 70.5 h worked out at 0.00897%. The value for `CCN(Cc1ccccc1)S(=O)(=O)C1CCS(=O)(=O)CC1` was -10.9%.

Take `CC(=O)Nc1ccc(C(=O)N2CCSCC2c2ccc(C)o2)cc1` (stereo not drawn): the cytotoxicity at 70.5 h is -4.02%. Take `Cc1ccc(C2CSCCN2C(=O)c2ccoc2C)o1` (stereo not drawn): the cytotoxicity at 70.5 h was -8.94%. For `CN(C(=O)CCN1CCCC1=O)c1cc(C#N)c2ccccc2n1`, the cytotoxicity at 70.5 h is 4.42%. Take `N#Cc1ccc(F)c(CN2CCNC(=O)C2c2cccs2)c1` (stereo not drawn): the cytotoxicity at 70.5 h stood at 18%. The value for `N#Cc1cccc(OCCN2CCNC(=O)C2c2cccs2)c1` (stereo not drawn) was -6%; that for `Cc1ccc(S(=O)(=O)N2CCN(C)c3ccncc32)cc1F` was -4.45%.

Turning to `CCOCCNC(=O)c1ccc(OC)cc1I`, the cytotoxicity at 70.5 h was -6.65%. The value for `CN(CC(=O)NC1CC1)C(=O)c1csc(Br)c1` was -8.41%; that for `CCOCC(=O)Nc1cccnc1-n1ccnc1C` was -6.13%. The value for `O=S(=O)(NC1CCCCC12OCCO2)c1ccc2c(c1)OCCO2` (stereo not drawn) was -7.16%; that for `N#Cc1ccc(OCCN2CCNC(=O)C2c2cccs2)cc1` (stereo not drawn) was -6.87%. As for `Cc1ccc(C2CSCCN2C(=O)c2cnsn2)o1` (stereo not drawn), the figure is -10.7%; as for `Clc1ccc(Cc2nc(CNCCn3cccn3)cs2)cc1`, -1.63%. `c1ccc(OCc2nc(CNCCn3cccn3)cs2)cc1`: the cytotoxicity at 70.5 h turned out to be 27%. As for `COc1cccc(CNCc2cccnc2-n2cccn2)c1OC`, the figure is 19.6%. As for `CC(C)CCN1CCN(C(=O)c2ccc(=O)[nH]n2)CC1`, the figure is -7.24%. As for `CC(C)c1nc(CNC2CCN(S(C)(=O)=O)CC2)cs1`, the figure is 20.3%. As to `O=C1CCN(CCCS(=O)(=O)c2ccc(Cl)cc2)CCN1`, the cytotoxicity at 70.5 h is -4.67%.

With `COc1ccccc1CN(CC1CCCO1)C(=O)c1cc(C)n[nH]1` (stereo not drawn), the cytotoxicity at 70.5 h was -14.4%. The value for `CC1CN(C)CCN1C(=O)Nc1nc(-c2ccc[nH]2)cs1` (stereo not drawn) was -14.7%. Take `OC(CN1CCN(CCOCC(F)(F)F)CC1)c1ccccc1` (stereo not drawn): the cytotoxicity at 70.5 h was determined as 24.5%. As for `O=C(NCCc1nncn1C1CC1)c1cnn(Cc2ccccc2)c1`, the figure is -11.1%; as for `CC(C)c1ocnc1C(=O)N1CC(=O)Nc2cccnc21`, -1.78%. As for `COCCN1CCC(Nc2ccc(C#N)cc2F)CC1`, the figure is -13.7%. The value for `O=C1CCN(C(=O)c2ncoc2-c2ccco2)c2ncccc2N1` was -9.5%; that for `CC(C)c1ocnc1C(=O)N1CCC(=O)Nc2cccnc21` was -13.9%.

As for `CC(C)(C)c1ccc(S(=O)(=O)CCN2CCNC(=O)CC2)cc1`, the cytotoxicity at 70.5 h was -10.4%. For the compound `COC(C)C(=O)NS(=O)(=O)c1ccc(F)c(C(F)(F)F)c1` (stereo not drawn), the cytotoxicity at 70.5 h was -12.6%. The value for `CC(=O)NS(=O)(=O)c1ccc(F)c(C(F)(F)F)c1` was -6.35%; that for `COc1cccc(NC(=O)NC2(c3noc(CN(C)C)n3)CCCC2)c1` was -10.2%; that for `CN(C)Cc1nc(C2(NC(=O)Nc3cccc(F)c3)CCCC2)no1` was -2.26%.

For the compound `CN(C)Cc1nc(C2(NC(=O)Nc3ccccc3)CCCC2)no1`, the cytotoxicity at 70.5 h is -12.8%. As for `Cc1cccc(C(=O)N2CCN(CCC(C)C)CC2)n1`, the figure is -11.4%. Regarding `CCN(Cc1ccoc1)C(=O)NC1CCN(C(=O)OC(C)(C)C)C1` (stereo not drawn), the cytotoxicity at 70.5 h was -2.35%.

In the case of `Cc1cccc(CN(Cc2ccccn2)S(=O)(=O)N(C)C(C)C)c1`, the cytotoxicity at 70.5 h was -14%.

On to `COc1cccc(CNc2cccnc2-n2cccn2)c1OC`, for which the cytotoxicity at 70.5 h is -14.7%.

For `Cc1ccc(C)c(CN2CCOC(c3noc(C)n3)C2)c1` (stereo not drawn), the cytotoxicity at 70.5 h was -4.49%. As for `CCN(Cc1ccoc1)C(=O)C1CN(C(=O)OC(C)(C)C)C1`, the figure is -13.5%. As for `COc1ccccc1CN(CC1CCCO1)C(=O)c1ccc(F)cn1` (stereo not drawn), the figure is -9.98%; as for `CC(CNC1CCN(Cc2ccncc2)CC1)c1ccc(F)cc1F` (stereo not drawn), -11%; as for `COc1cccc(COc2nc(C(C)C)no2)c1`, 15.2%. The value for `NS(=O)(=O)c1ccc(CNCC(=O)NCc2ccc(Cl)cc2Cl)cc1` was -8.64%. As for `O=S(=O)(NCc1ccc(S(=O)(=O)N2CCCC2)s1)c1cc(Cl)cc(Cl)c1`, the cytotoxicity at 70.5 h is -21.3%.
